Measured values as given in US7579368B2, “Cis-imidazolines” (Hoffman-La Roche Inc., priority 2005, dated 2009).
Counter-ions that a name gives are not always drawn.

target: interaction between p53 and MDM2 proteins (recombinant GST-tagged MDM2 and p53 peptide) (Homo sapiens, UniProt Q00987); assay: HTRF assay of inhibition of the p53-MDM2 interaction (GST-MDM2 / biotinylated p53 peptide); format: binding; settings: 90 nM biotinylated p53 peptide, 160 ng/ml GST-MDM2, 37° C. 1 h
Method: The ability of the compounds to inhibit the interaction between p53 and MDM2 proteins was measured by an HTRF (homogeneous time-resolved fluorescence) assay in which recombinant GST-tagged MDM2 binds to a peptide that resembles the MDM2-interacting region of p53 (Lane et al.). Binding of GST-MDM2 protein and p53-peptide (biotinylated on its N-terminal end) is registered by the FRET (fluorescence resonance energy transfer) between Europium (Eu)-labeled anti-GST antibody and streptavidin-conjugated Allophycocyanin (APC).
Test is performed in black flat-bottom 384-well plates (Costar) in a total volume of 40 uL containing: 90 nM biotinylated peptide, 160 ng/ml GST-MDM2, 20 nM streptavidin-APC (PerkinElmerWallac), 2 nM Eu-labeled anti-GST-antibody (PerkinElmerWallac), 0.2% bovine serum albumin (BSA), 1 mM dithiothreitol (DTT) and 20 mM […] (TBS) buffer as follows: Add 10 uL of GST-MDM2 (640 ng/ml working solution) in reaction buffer to each well. Add 10 uL diluted compounds (1:5 dilution in reaction buffer) to each well, mix by shaking. Add 20 uL biotinylated p53 peptide (180 nM working solution) in reaction buffer to each well and mix on shaker. Incubate at 37° C. for 1 h. Add 20 uL streptavidin-APC and Eu-anti-GST antibody mixture (6 nM Eu-anti-GST and 60 nM streptavidin-APC working solution) in TBS buffer with 0.2% BSA, shake at room temperature for 30 minutes and read using a TRF-capable plate reader at 665 and 615 nm (Victor 5, Perkin ElmerWallac). If not specified, the reagents were purchased from Sigma Chemical Co.

Sequence of interaction between p53 and MDM2 proteins (recombinant GST-tagged MDM2 and p53 peptide) (Q00987 whole entry): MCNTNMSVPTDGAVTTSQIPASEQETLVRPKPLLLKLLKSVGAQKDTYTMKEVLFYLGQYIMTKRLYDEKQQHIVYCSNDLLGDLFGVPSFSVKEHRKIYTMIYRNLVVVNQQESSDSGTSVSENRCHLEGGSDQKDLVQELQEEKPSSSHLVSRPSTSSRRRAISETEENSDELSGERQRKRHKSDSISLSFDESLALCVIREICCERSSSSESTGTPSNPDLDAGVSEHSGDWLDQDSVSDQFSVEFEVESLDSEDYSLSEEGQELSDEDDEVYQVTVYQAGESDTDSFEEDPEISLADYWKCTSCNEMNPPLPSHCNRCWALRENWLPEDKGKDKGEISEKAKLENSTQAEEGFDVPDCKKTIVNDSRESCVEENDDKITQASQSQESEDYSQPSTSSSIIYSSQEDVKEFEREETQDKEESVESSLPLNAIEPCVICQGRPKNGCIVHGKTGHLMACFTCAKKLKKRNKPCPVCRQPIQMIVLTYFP

| Structure (SMILES) | IC50 |
| --- | --- |
| CCOc1cc(Cl)c(S(N)(=O)=O)cc1C1=N[C@@H](c2ccc(Cl)cc2)[C@@H](c2ccc(Cl)cc2)N1C(=O)N1CCN(CC(=O)N2CCOCC2)CC1 [Example 34, 5-{(4S,5R)-4,5-Bis-(4-chloro-phenyl)-1-[4-(2-morpholin-4-yl-2-oxo-ethyl)-piperazine-1-carbonyl]-4,5-dihydro-1H-imidazol-2-yl}-2-chloro-4-ethoxy-benzenesulfonamide] | 9 nM |
| CCOc1ccc(S(=O)(=O)NC(C)COC)cc1C1=NC(c2ccc(Cl)cc2)C(c2ccc(Cl)cc2)N1C(=O)N1CCN(CC(=O)NC)CC1 (stereo not shown) [Example 130, 2-(4-{4,5-Bis-(4-chloro-phenyl)-2-[2-ethoxy-5-(2-methoxy-1-methyl-ethylsulfamoyl)-phenyl]-4,5-dihydro-imidazole-1-carbonyl}-piperazin-1-yl)-N-methyl-acetamide] | 57 nM |
| CCOc1cc(Cl)c(S(=O)(=O)N2CCCC2)cc1C1=N[C@@H](c2ccc(Cl)cc2)[C@@H](c2ccc(Cl)cc2)N1C(=O)N1CCN(CCS(C)(=O)=O)CC1 [Example 174, [(4S,5R)-2-[4-Chloro-2-ethoxy-5-(pyrrolidine-1-sulfonyl)-phenyl]-4,5-bis-(4-chloro-phenyl)-4,5-dihydro-imidazol-1-yl]-[4-(2-methanesulfonyl-ethyl)-piperazin-1-yl]-methanone hydrochloride] | 5 nM |
| CCOc1cc(Cl)c(C#N)cc1C1=N[C@@H](c2ccc(Cl)cc2)[C@@H](c2ccc(Cl)cc2)N1C(=O)N1CCNC(=O)C1 [Example 234, 5-[(4S,5R)-4,5-Bis-(4-chloro-phenyl)-1-(3-oxo-piperazine-1-carbonyl)-4,5-dihydro-1H-imidazol-2-yl]-2-chloro-4-ethoxy-benzonitrile] | 150 nM |
| CCOc1cc(C#CC(C)(C)C)ccc1C1=N[C@@H](c2ccc(Cl)cc2)[C@@H](c2ccc(Cl)cc2)N1C(=O)N1CCN(CC(=O)N2CCOCC2)CC1 [Example 405, 2-(4-{(4S,5R)-4,5-Bis-(4-chloro-phenyl)-2-[4-(3,3-dimethyl-but-1-ynyl)-2-ethoxy-phenyl]-4,5-dihydro-imidazole-1-carbonyl}-piperazin-1-yl)-1-morpholin-4-yl-ethanone hydrochloride] | 544 nM |

Further compounds by falling IC50, results first:

| IC50 | Structure (SMILES) |
| --- | --- |
| 310 nM | CCOc1cc(N(C(=O)N2CCNC(=O)C2)S(C)(=O)=O)ccc1C1=N[C@@H](c2ccc(Cl)cc2)[C@@H](c2ccc(Cl)cc2)N1C(=O)N1CCNC(=O)C1 [Example 275, N-{4-[(4S,5R)-4,5-Bis-(4-chloro-phenyl)-1-(3-oxo-piperazine-1-carbonyl)-4,5-dihydro-1H-imidazol-2-yl]-3-ethoxy-phenyl}-N-(3-oxo-piperazine-1-carbonyl)-methanesulfonamide] |
| 160 nM | CCOc1cc(NC(=O)C(C)(C)C)ccc1C1=N[C@@H](c2ccc(Cl)cc2)[C@@H](c2ccc(Cl)cc2)N1C(=O)N1CCNC(=O)C1 [Example 277, N-{4-[(4S,5R)-4,5-Bis-(4-chloro-phenyl)-1-(3-oxo-piperazine-1-carbonyl)-4,5-dihydro-1H-imidazol-2-yl]-3-ethoxy-phenyl}-2,2-dimethyl-propionamide] |
| 57 nM | CCOc1ccc(S(=O)(=O)N(CCOC)CCOC)cc1C1=NC(c2ccc(Cl)cc2)C(c2ccc(Cl)cc2)N1C(=O)N1CCNC(=O)C1 (stereo not shown) [Example 105, 3-[4,5-Bis-(4-chloro-phenyl)-1-(3-oxo-piperazine-1-carbonyl)-4,5-dihydro-1H-imidazol-2-yl]-4-ethoxy-N,N-bis-(2-methoxy-ethyl)-benzenesulfonamide] |
| 9 nM | CCOc1cc(C#N)ccc1C1=N[C@@H](c2ccc(Cl)cc2)[C@@H](c2ccc(Cl)cc2)N1C(=O)N1CCN(CCO)CC1 [Example 63, 4-{(4S,5R)-4,5-Bis-(4-chloro-phenyl)-1-[4-(2-hydroxy-ethyl)-piperazine-1-carbonyl]-4,5-dihydro-1H-imidazol-2-yl}-3-ethoxy-benzonitrile] |
| 5 nM | CCOc1cc(Cl)c(S(=O)(=O)N2CCCCC2)cc1C1=N[C@@H](c2ccc(Cl)cc2)[C@@H](c2ccc(Cl)cc2)N1C(=O)N1CCN(CC(=O)N2CCOCC2)CC1 [Example 175, 2-{4-[(4S,5R)-2-[4-Chloro-2-ethoxy-5-(piperidine-1-sulfonyl)-phenyl]-4,5-bis-(4-chloro-phenyl)-4,5-dihydro-imidazole-1-carbonyl]-piperazin-1-yl}-1-morpholin-4-yl-ethanone hydrochloride] |
